Laboratory results taken from patent US11919902B2, “Aryl-bipyridine amine derivatives as phosphatidylinositol phosphate kinase inhibitors” (HiberCell, Inc., priority 2017, dated 2024).
Blank lines part the entries; values can stand above or below the compound they belong to.

Molecular target: T1, PIP4K2A (full length protein, SignalChem) (Homo sapiens, UniProt P48426)
T1 construct: 4 nM PIP4K2A (full length protein, SignalChem); purchased SignalChem
T1 sequence (P48426 1-406): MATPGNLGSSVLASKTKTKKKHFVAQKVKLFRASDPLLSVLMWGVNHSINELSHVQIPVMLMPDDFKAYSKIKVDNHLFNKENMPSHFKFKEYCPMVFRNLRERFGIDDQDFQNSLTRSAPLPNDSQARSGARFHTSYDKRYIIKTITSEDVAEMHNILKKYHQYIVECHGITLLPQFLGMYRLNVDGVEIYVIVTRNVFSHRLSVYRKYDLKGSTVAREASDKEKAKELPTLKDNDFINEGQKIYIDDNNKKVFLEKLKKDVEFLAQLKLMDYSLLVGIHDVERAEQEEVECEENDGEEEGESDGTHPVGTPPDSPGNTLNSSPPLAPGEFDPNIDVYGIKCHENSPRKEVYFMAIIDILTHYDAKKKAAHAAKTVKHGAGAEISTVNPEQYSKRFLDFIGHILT
Assay: Kinase Assay PIP4K2 A (Sprint); ADP-Glo biochemical assay
Conditions: Table 2; compounds listed under IC50 range headings
Method: Dilution series of the compounds were prepared in DMSO at 100 times the final assay concentration (n1=n0/3 in 10 points). The compounds were further diluted to three times the assay concentration in assay buffer (20 mM MOPS pH 7.2, 25 mM magnesium chloride, 0.005% Tween 20). 6 μL of the diluted compounds were added to a 384 well assay plate followed by 9 μL of a mix consisting of 4 nM PIP4K2A (full length protein, SignalChem) and 100 μM PI(5)P diC8 (Tebu-Bio). Enzyme and compounds were pre-incubated at room temperature for 15 min.
Then 3 μL of a solution containing 60 μM ATP (Promega) in assay buffer was added to the wells containing compound and enzyme and mixing was performed by pipetting several times. The reaction was incubated at room temperature for 1 h. Then 18 μL of ADP-Glo™ Reagent (Promega) was added to stop the kinase reaction and deplete the unconsumed ATP, mixing was performed by pipetting several times. The plate was incubated at room temperature for 40 min before addition of 36 μL of Kinase Detection Reagent (Promega) to convert ADP to ATP and introduce luciferase and luciferin to detect ATP. The reaction was incubated at room temperature for 40 min before the luminescence was measured in a in a Victor 3V 1420 multilabel counter (Perkin Elmer).
Percent inhibition of the compounds as compared to dimethyl sulfoxide treated control samples was calculated. Compound concentration versus percent inhibition were fitted to generate IC50 values.

Structure (SMILES): CN(C)C(=O)c1ccc(-c2cc(-c3ccncc3)cnc2N)cc1 [Example 16, 4-(6-amino-[3,4′-bipyridin]-5-yl)-N,N-dimethylbenzamide]
- IC50: < 5000 nM

Structure (SMILES): CN(C)C(=O)c1ccc(-c2cc(-c3ccc(=O)[nH]c3)cnc2N)cc1 [Example 17, 4-(6-amino-6′-oxo-1′,6′-dihydro-[3,3′-bipyridin]-5-yl)-N,N-dimethylbenzamide]
- IC50: < 5000 nM

Structure (SMILES): CN(C)C(=O)c1ccc(-c2cc(C3=CCOCC3)cnc2N)cc1 [Example 18, 4-(2-amino-5-(3,6-dihydro-2H-pyran-4-yl)pyridin-3-yl)-N,N-dimethylbenzamide]
- IC50: < 5000 nM

Structure (SMILES): Cc1c(-c2ccncc2)cncc1-c1ccc(N2CCCC2=O)cc1 [Example 82, 1-(4-(4-methyl-[3,4′-bipyridin]-5-yl)phenyl)pyrrolidin-2-one]
- IC50: 100 to 1000 nM

Structure (SMILES): Nc1ncc(-c2ccnc3oc(C(=O)NC4COC4)cc23)cc1-c1ccc(N2CCCC2=O)cc1 [Example 93, 4-(6-amino-5-(4-(2-oxopyrrolidin-1-yl)phenyl)pyridin-3-yl)-N-(oxetan-3-yl)furo[2,3-b]pyridine-2-carboxamide]
- IC50: 5 to 100 nM

Structure (SMILES): Nc1ncc(-c2ccnc3c2CNC3=O)cc1-c1ccc(N2CCCC2=O)cc1 [Example 95, 4-(6-amino-5-(4-(2-oxopyrrolidin-1-yl)phenyl)pyridin-3-yl)-5,6-dihydro-7H-pyrrolo[3,4-b]pyridin-7-one]
- IC50: 1 to 5 nM

Structure (SMILES): CN(C)C(=O)c1ccc(-c2cc(-c3ccnc(C(C)(C)O)c3)cnc2N)nc1 [Example 101, 2′-Amino-2″-(2-hydroxypropan-2-yl)-N,N-dimethyl-[2,3′:5′,4″-terpyridine]-5-carboxamide]
- IC50: 1000 to 2500 nM

Structure (SMILES): CN(C)C(=O)c1ccc(-c2cc(-c3ccnc(C(C)(C)C#N)c3)cnc2N)nc1 [Example 102, 2′-Amino-2″-(2-cyanopropan-2-yl)-N,N-dimethyl-[2,3′:5′,4″-terpyridine]-5-carboxamide]
- IC50: 1000 to 2500 nM

Structure (SMILES): CN(C)C(=O)c1ccc(-c2cc(-c3ccnc(C4(C#N)CC4)c3)cnc2N)nc1 [Example 103, 2′-amino-2″-(1-cyanocyclopropyl)-N,N-dimethyl-[2,3′:5′,4″-terpyridine]-5-carboxamide]
- IC50: 100 to 1000 nM

Structure (SMILES): CN(C)C(=O)c1ccc(-c2cc(-c3ccnc4occc34)cnc2N)nc1 [Example 104, 2′-amino-5′-(furo[2,3-b]pyridin-4-yl)-N,N-dimethyl-[2,3′-bipyridine]-5-carboxamide]
- IC50: 100 to 1000 nM

Second part, the compound after the results:

- IC50: 100 to 1000 nM
Structure (SMILES): CN(C)C(=O)c1ccc(-c2cncc(-c3cncc(-c4ccnc5[nH]ccc45)c3)c2)cc1 [Example 3, 4-(5′-(H-pyrrolo[2,3-b]pyridin-4-yl)-[3,3′-bipyridin]-5-yl)-N,N-dimethylbenzamide]

- IC50: 1000 to 2500 nM
Structure (SMILES): CN(C)C(=O)c1ccc(-c2cncc(-c3ccnc(C(C)(C)O)c3)c2)cc1 [Example 8, 4-(2′-(2-hydroxypropan-2-yl)-[3,4′-bipyridin]-5-yl)-N,N-dimethylbenzamide]

- IC50: 100 to 1000 nM
Structure (SMILES): CN(C)C(=O)c1ccc(-c2cc(-c3ccncc3)cnc2N)nc1 [Example 19, 2′-amino-N,N-dimethyl-[2,3′:5′,4″-terpyridine]-5-carboxamide]

- IC50: 100 to 1000 nM
Structure (SMILES): COC(=O)c1cc2c(-c3cnc(N)c(-c4ccc(N5CCCC5=O)cc4)c3)ccnc2[nH]1 [Example 94, methyl 4-(6-amino-5-(4-(2-oxopyrrolidin-1-yl)phenyl)pyridin-3-yl)-1H-pyrrolo[2,3-b]pyridine-2-carboxylate]

- IC50: 100 to 1000 nM
Structure (SMILES): CN(C)C(=O)c1ccc(-c2cc(-c3ccnc4ccc(C#N)cc34)cnc2N)nc1 [Example 100, 2′-Amino-5′-(6-cyanoquinolin-4-yl)-N,N-dimethyl-[2,3′-bipyridine]-5-carboxamide]

- IC50: 100 to 1000 nM
Structure (SMILES): CN(C)C(=O)c1ccc(-c2cc(-c3ccnc4c3ccn4C)cnc2N)nc1 [Example 105, 2′-amino-N,N-dimethyl-5′-(1-methyl-1H-pyrrolo[2,3-b]pyridin-4-yl)-[2,3′-bipyridine]-5-carboxamide]
